The record followed here is paper PMC4307180, “Overcoming myelosuppression due to synthetic lethal toxicity for FLT3-targeted acute myeloid leukemia therapy” (eLife, 2014).

The IC50 is the midpoint of a concentration-inhibition curve. The term inhibition denotes the drop in the measured response relative to a control, in per cent.

Entries after “also recorded” stand apart in the source; their conditions may differ.

Data set [1] has as its system Ba/F3 FLT3 ITD + Y842C. In words: Ba/F3 cell viability, FLT3 ITD + Y842C. It is filed as cell-based. Particulars: Mus musculus, Ba/F3, 48 hr, ± SEM. The protocol: (§1) Stable Ba/F3 lines were generated by retroviral spinfection with the appropriate mutated plasmid as previously described ([Smith et al., 2012]).
(§2) Exponentially growing cells (5 × 10^3 cells per well) were plated in each well of a 96-well plate with 0.1 ml of RPMI 1640 + 10% (vol/vol) FCS containing the appropriate concentration of drug in triplicate, and cell viability was assessed after 48 hr as previously described ([Smith et al., 2012]). […] Log10-scale transformation of ratios, followed by conditional formatting using xcel spreadsheet software yielded the colored diagrams shown.
(§3) Mutations isolated in the screen were engineered into pMSCVpuroFLT3–ITD by QuikChange mutagenesis (Stratagene, La Jolla, CA) as previously described ([Smith et al., 2012]).

The test system of data set [2] is Ba/F3 FLT3 D835V. In words: Ba/F3 cell viability, FLT3 D835V. Particulars: Mus musculus, BaF3; Ba/F3, 48 hr, ± SEM. Format: cell-based. The method, then:
as §1, §2, §3

In data set [3] the test system is Ba/F3 FLT3 ITD + A848P. In words: Ba/F3 cell viability, FLT3 ITD + A848P. Format: cell-based. Particulars: Mus musculus, Ba/F3, 48 hr, ± SEM. The method, then:
as §1, §2, §3

Data set [4] has as its system Ba/F3 FLT3 D835Y. The data set can be described thus: Ba/F3 cell viability, FLT3 D835Y. The note with it: Mus musculus, BaF3; Ba/F3, 48 hr, ± SEM. It is filed as cell-based. The method, then:
as §1, §2, §3

Data set [5] has as its system Ba/F3 FLT3 ITD + Y693C. The data set can be described thus: Ba/F3 cell viability, FLT3 ITD + Y693C. Format: cell-based. The note with it: Mus musculus, Ba/F3, 48 hr, ± SEM. The method, then: as §1, §2, §3
Data set [6] relates to Ba/F3 FLT3 ITD + D698N. The data set can be described thus: Ba/F3 cell viability, FLT3 ITD + D698N. Format: cell-based. The note with it: Mus musculus, Ba/F3, 48 hr, ± SEM. The method, then:
as §1, §2, §3

In data set [7] the test system is mpo+ myeloid cells in zebrafish embryos. In words: Zebrafish normal myelopoiesis, mpo WISH in posterior blood island. The note with it: 10 μM, 6 to 30 hpf, read at 30 hpf, vs DMSO. It is filed as in vivo, Danio rerio (zebrafish). The method, then: Figure 4. […] (N–P) Three categories of mpo transcription (N, normal; O, intermediate; P, severe) were defined based on the WISH results (three experiments). […] Scale bar equals 500 μm. Blue arrows indicate the pericardial edema, green arrows indicate tail shortening and curving, and red arrows indicate the FLT3-ITD AML mpo+ myeloid cells expansion. […] For all experiments: Zebrafish embryos were collected and kept in standard E3 medium at 28°C. Different concentrations of either drug were added to the E3 medium from 6 hr post fertilization (hpf) to 3 days post fertilization (dpf). Embryos treated with DMSO or 10 μM drug from 6 to 30 hpf were collected for mpo whole mount in situ hybridization (WISH) analysis. […] plasmid DNA containing FLT3/ITD sequence was microinjected into one-cell stage embryos, and the uninjected embryos were used as control. FLT3/ITD-injected embryos were treated with DMSO or 10 μM drug from 6 to 30 hpf.
Wild-type (WT) zebrafish were maintained under standard conditions, and embryos were staged as described ([He et al., 2014]). The study was approved by the Committee of the Use of Live Animals for Teaching and Research in The University of Hong Kong.

The test system of data set [8] is primary patient FLT3 D835 AML circulating blasts. In words: Colony-forming assay, primary patient FLT3-D835 AML blasts. Format: cell-based, human. An excerpt: (§4) Primary AML blood samples and/or marrow aspirates were obtained on an IRB-approved protocol at the University of California, San Francisco. Informed consent was obtained in accordance with the Declaration of Helsinki. Mononuclear cells were purified by density centrifugation (Ficoll–Paque Plus, GE Healthsciences) before cryopreservation in 10% (vol/vol) DMSO or FCS (primary ITD and D835-mutant assays, Figure 3A–C) or immediate use in assays (Normal BM and SPB, Figure 3D–F). Normal BM and stimulated peripheral blood (SPB) samples were collected from donors at the UCSF oncology/hematology division. Cells were then suspended in MethoCult methylcellulose (Stem Cell Technologies, product no. H4435 Enriched, Canada) in 15-ml Falcon tubes, vigorously vortexed, bubbles settled over 10 min. Triplicates then plated via blunt-nosed syringe (1.1 ml each) into 3-cm dishes, avoiding bubble generation, and each dish placed in a larger 10-cm dish with water trough in an incubator (37°C, 5% CO2) for 13–14 days. Colonies were counted individually using traditional microscopy. CFU and BFU types reported separately (CFU-GEMM colonies counted as one of each).

Data set [9] deals with CSF1R (Homo sapiens, UniProt P07333). In words: Reaction Biology Corp kinase assay at Km-ATP (Figure 1C), CSF1R.
Data set [10] concerns the target PDGFRβ (Homo sapiens, UniProt P09619). In words: Reaction Biology Corp kinase assay at Km-ATP (Figure 1C), PDGFRβ.
In data set [11] the test system is Ba/F3 FLT3 ITD + F691L. In words: Ba/F3 cell viability, FLT3 ITD + F691L. It is filed as cell-based. Particulars: Mus musculus, Ba/F3, 48 hr, ± SEM. The protocol:
as §1, §2, §3

The subject of data set [12] is Ba/F3 FLT3 ITD + D835H. The data set can be described thus: Ba/F3 cell viability, FLT3 ITD + D835H. It is filed as cell-based. Particulars: Mus musculus, Ba/F3, 48 hr, ± SEM. The method, then:
as §1, §2, §3

Data set [13] has as its system normal bone marrow (BM) and stimulated peripheral blood (SPB) hematopoietic progenitors. The data set can be described thus: Colony-forming assay, normal BM and stimulated peripheral blood. It is filed as cell-based, human.
Description: as §4, with “each). Results shown for FLT3 ITD primary blasts (Figure 3B) are a combination of leukemic blast colonies and BFU colonies.” for “each).”

The subject of data set [14] is Ba/F3 FLT3 ITD + Y842H. The data set can be described thus: Ba/F3 cell viability, FLT3 ITD + Y842H. Particulars: Mus musculus, Ba/F3, 48 hr, ± SEM. Format: cell-based. The protocol: as §1, §2, §3
For data set [15], the system named is Molm14 cells (FLT3-ITD heterozygous). In words: Cell proliferation/viability assay, Molm14. It is filed as cell-based. Particulars: Homo sapiens, MOLM-14, 48 hr, ± SEM. The protocol:
as §2

Data set [16] relates to MV4;11 cells (FLT3-ITD homozygous). The data set can be described thus: Cell proliferation/viability assay, MV4;11. Format: cell-based. Particulars: Homo sapiens, 48 hr, ± SEM. The protocol:
as §2

Chain of CSF1R (P07333 20-972): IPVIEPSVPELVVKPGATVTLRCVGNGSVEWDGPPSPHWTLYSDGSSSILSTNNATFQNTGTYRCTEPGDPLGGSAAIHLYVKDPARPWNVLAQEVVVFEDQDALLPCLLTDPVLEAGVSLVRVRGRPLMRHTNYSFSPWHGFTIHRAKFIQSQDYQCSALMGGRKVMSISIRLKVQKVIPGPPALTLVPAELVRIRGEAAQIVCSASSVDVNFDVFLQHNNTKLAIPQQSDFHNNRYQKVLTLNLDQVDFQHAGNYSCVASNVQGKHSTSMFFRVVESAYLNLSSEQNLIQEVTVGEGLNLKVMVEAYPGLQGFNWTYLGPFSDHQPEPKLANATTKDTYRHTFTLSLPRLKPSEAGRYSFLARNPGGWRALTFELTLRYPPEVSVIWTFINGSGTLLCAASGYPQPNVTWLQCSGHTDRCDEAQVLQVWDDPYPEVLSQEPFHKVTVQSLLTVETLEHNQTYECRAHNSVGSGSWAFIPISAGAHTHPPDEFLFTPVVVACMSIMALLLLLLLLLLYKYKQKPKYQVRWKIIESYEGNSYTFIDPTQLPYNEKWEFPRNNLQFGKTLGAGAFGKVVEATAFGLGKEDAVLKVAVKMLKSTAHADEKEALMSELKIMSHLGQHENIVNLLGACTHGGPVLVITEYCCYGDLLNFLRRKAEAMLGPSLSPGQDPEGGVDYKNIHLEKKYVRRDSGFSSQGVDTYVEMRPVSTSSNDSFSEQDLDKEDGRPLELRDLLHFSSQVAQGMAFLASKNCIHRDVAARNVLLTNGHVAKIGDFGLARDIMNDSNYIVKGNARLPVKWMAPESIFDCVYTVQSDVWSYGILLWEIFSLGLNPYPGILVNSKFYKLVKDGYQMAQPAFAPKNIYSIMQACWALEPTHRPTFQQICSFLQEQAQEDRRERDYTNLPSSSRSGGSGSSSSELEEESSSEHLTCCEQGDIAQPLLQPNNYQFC
Chain of PDGFRβ (P09619 33-1106): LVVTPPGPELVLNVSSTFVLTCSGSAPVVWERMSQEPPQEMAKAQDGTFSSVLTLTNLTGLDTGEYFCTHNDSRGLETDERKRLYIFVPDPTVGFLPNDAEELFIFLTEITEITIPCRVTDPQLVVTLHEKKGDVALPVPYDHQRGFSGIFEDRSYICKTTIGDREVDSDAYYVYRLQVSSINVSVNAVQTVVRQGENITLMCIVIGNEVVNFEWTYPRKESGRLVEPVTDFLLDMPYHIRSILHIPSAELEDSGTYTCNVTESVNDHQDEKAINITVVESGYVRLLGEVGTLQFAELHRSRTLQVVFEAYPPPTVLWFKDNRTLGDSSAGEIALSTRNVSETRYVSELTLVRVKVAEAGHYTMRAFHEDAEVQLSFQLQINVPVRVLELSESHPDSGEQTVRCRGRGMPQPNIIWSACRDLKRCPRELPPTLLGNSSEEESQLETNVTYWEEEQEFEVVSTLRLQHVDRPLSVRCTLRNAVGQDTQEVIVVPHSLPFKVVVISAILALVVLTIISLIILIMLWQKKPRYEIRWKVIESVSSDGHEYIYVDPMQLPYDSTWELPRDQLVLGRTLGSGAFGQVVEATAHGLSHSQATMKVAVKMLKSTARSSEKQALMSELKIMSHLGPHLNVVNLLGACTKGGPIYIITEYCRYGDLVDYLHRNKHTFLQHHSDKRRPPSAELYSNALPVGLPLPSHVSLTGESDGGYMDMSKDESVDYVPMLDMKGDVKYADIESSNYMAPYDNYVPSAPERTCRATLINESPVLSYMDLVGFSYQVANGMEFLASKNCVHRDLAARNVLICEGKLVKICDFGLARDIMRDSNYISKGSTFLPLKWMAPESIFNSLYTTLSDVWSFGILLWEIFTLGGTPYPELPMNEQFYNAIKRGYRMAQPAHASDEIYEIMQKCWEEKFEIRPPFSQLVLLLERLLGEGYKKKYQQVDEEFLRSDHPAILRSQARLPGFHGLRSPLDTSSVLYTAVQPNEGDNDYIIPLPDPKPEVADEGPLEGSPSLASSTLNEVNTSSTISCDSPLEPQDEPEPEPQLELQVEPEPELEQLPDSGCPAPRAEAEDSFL

On to `CC1NC(=O)c2c1c1c3ccccc3n(CCCN)c1c1[nH]c3ccccc3c21` (centres unmarked) [Star 27], for which the IC50 in [1] was 48 ± 29 nM; in data set [2] it was 19 ± 3 nM; in data set [3], 53 ± 31 nM; in data set [4], 18 ± 12 nM; in data set [5], 279 ± 36 nM; in data set [6], 174 ± 44 nM. Also, the IC50 is above 9880 nM in data set [9]; 80 ± 11 nM in [10]; 144 ± 97 nM in data set [11]; 48 ± 29 nM in [12]; 38 ± 24 nM in [14]; 57 ± 8 nM in [15]. The same compound registered an IC50 in [16] of 41 ± 6 nM. For the same compound, the “effect on mpo+ myeloid cells development in the PBI” value in data set [7] was “no statistically significant change; also recorded: non-significant difference”. Moreover, the inhibition at 1 µM in data set [8] (Homo sapiens, at 1000 nM, read-out: inhibition of colonies, FLT3-D835 (ITD−) blasts) is around 60%. The “raw colony numbers, FLT3 D835Y blasts” value in data set [8] (at 1,000 nM, ca. 120 for DMSO plates) is on record as around 50. Moreover, the “CSF1R/FLT3 IC50 ratio” value in data set [9] (ratio of Figure 1C IC50s) was > 16,500. Moreover, the “raw colony numbers, normal BM, BFUs” value in [13] (all Star 27-treated conditions) is listed as “ca. 400”. Moreover, the “raw colony numbers, normal BM, CFUs” value in data set [13] (all Star 27-treated conditions) is given as “ca. 300”. Moreover, in data set [13] (normal BM and SPB donors, up to 1,000 nM), the “effect on normal hematopoietic colony formation (CFU and BFU)” value is “no effect on hematopoiesis up to 1,000 nM; also recorded: no significant effect up to a concentration of 1,000 nM”.
